Target: T1, CXCR2 (Homo sapiens, UniProt P25025)
T1 construct: host or cells: HEK293T, transient
T1 sequence (P25025 1-360): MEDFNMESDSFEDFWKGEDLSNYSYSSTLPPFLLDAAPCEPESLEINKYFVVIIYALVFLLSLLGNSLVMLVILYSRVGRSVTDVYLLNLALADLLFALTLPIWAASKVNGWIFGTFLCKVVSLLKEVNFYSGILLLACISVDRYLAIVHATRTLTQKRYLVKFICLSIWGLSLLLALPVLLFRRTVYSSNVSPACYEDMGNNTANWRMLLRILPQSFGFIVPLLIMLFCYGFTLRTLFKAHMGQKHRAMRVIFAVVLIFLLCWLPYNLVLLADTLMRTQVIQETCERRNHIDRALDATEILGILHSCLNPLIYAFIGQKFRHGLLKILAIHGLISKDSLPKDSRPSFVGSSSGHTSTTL
Assay: NanoBRET-based assay for binding to the IABS of CXCR2, as previously reported
Conditions: up to a concentration of 20 μM
Source text: With 6 (Figure 1), a first lead structure for intracellular CCR1 inhibition that features an approximately 20-fold CCR1 over CCR2 selectivity was previously discovered by Ortiz Zacarías et al.([33]) In order to discover new chemotypes for selective CCR1 over CCR2 inhibition, we aimed to apply our novel NanoBRET competition binding assay for CCR1 in combination with our recently published CCR2 competition binding assay based on 7.[47] In our first attempt, we screened a small in-house library enriched with intracellular GPCR ligands and structural analogues thereof. […] Additionally, we tested 23 for binding to the IABS of CCR9 and CXCR2 using our recently reported NanoBRET-based assay platform (Figure 6C).[44],[45] In the course of these studies, we detected no binding of 23 to CCR9 and CXCR2 up to a concentration of 20 μM. Since cell lineage-dependent effects have been observed for CCR1 antagonists,[59] we studied the CCR1 over CCR2 selectivity of 23 by using a previously reported radioligand binding assay with membrane preparations from osteosarcoma (U2OS) cells stably expressing human CCR1 or CCR2.[33] […] In agreement with these previous reports,[33] we observed a reduction in CCR1 over CCR2 selectivity when moving from membrane-based binding assays to cell-based functional assays. […]

## O=C(C1=C(O)C(=O)N(CCc2ccc(O)cc2)C1c1ccc(F)cc1)c1ccccc1 (racemic) [compound 23]
  Binding to the IABS of CXCR2: no binding

Source: article PMC11249626, “Fluorophore-Labeled Pyrrolones Targeting the Intracellular Allosteric Binding Site of the Chemokine Receptor CCR1” (ACS Pharmacology & Translational Science, 2024)
